Legend:
Format in all cases: in vivo
corn (Zea mays) = experiment: Test B pre-/postemergence plant response
Method in brief: (§1)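 Ratings reflect visual comparison with untreated controls 13 to 15 days after application, from 0 (no effect) to 100 (complete control). Application was preemergence to seeded loam/sand soil or postemergence to 1- to 4-leaf plants, with compound in a non-phytotoxic, surfactant-containing solvent.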

[1] = system: giant foxtail (Setaria faberii); experiment: Test B pre-/postemergence plant response
Method in brief: as §1

[2] = system: goosegrass (Eleusine indica); experiment: Test B pre-/postemergence plant response
Method in brief: as §1

[3] = system: green foxtail (Setaria viridis); experiment: Test B pre-/postemergence plant response
Method in brief: as §1

[4] = system: johnsongrass (Sorghum halepense); experiment: Test B pre-/postemergence plant response
Method in brief: as §1

[5] = system: lambsquarters (Chenopodium album); experiment: Test B pre-/postemergence plant response
Method in brief: as §1

[6] = system: pigweed (Amaranthus retroflexus); experiment: Test B pre-/postemergence plant response
Method in brief: as §1

soybean (Glycine max) = experiment: Test B pre-/postemergence plant response
Method in brief: as §1

[7] = system: velvetleaf (Abutilon theophrasti); experiment: Test B pre-/postemergence plant response
Method in brief: as §1

[8] = system: yellow nutsedge (Cyperus esculentus); experiment: Test B pre-/postemergence plant response
Method in brief: as §1

[9] = system: canarygrass (Phalaris minor); experiment: Test B postemergence plant response; settings: Postemergence
Method in brief: (§2)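 Visual ratings from 0 (no effect) to 100 (complete control), made against controls 13–15 days after treatment, kept in a greenhouse. Compounds were applied postemergence to potted plants at the 1- to 4-leaf stage (2–18 cm).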

[10] = system: chickweed (Stellaria media); experiment: Test B postemergence plant response; settings: Postemergence
Method in brief: as §2

[11] = system: windgrass (Apera spica-venti); experiment: Test B postemergence plant response; settings: Postemergence
Method in brief: as §2

[12] = system: winter barley (Hordeum vulgare); experiment: Test B postemergence plant response; settings: for Plant response rating, Barley: Postemergence
Method in brief: as §2

[13] = Postemergence, 31 g ai/ha, 0 to 100 scale (0 no effect, 100 complete control)
[14] = Postemergence, 62 g ai/ha, scale 0 to 100 (0 no effect, 100 complete control)
[15] = Postemergence, 125 g ai/ha, scale 0 to 100 (0 no effect, 100 complete control)
[16] = Postemergence, 250 g ai/ha, scale 0 to 100 (0 no effect, 100 complete control), 13 to 15 days
[17] = Preemergence, 31 g ai/ha, scale 0 to 100 (0 no effect, 100 complete control)
[18] = Preemergence, 62 g ai/ha, scale 0 to 100 (0 no effect, 100 complete control)
[19] = Preemergence, 125 g ai/ha, scale 0 to 100, 0 no effect, 100 complete control
[20] = Preemergence, 250 g ai/ha, 0 to 100 scale
[21] = 31 g ai/ha, 0 to 100 scale (0 no effect, 100 complete control)
[22] = 62 g ai/ha, scale 0 to 100 (0 no effect, 100 complete control)
[23] = 125 g ai/ha, scale 0 to 100 (0 no effect, 100 complete control)
[24] = 250 g ai/ha, scale 0 to 100 (0 no effect, 100 complete control), 13 to 15 days

## COc1ccc(-n2c(-c3ccccc3)ncc(C(=O)C3=C(O)CCCC3=O)c2=O)cc1OC [Compound 218]
Corn (Zea mays); [13]
  Plant response rating, Corn: 0
Corn (Zea mays); [14]
  Plant response rating, Corn: 10
Corn (Zea mays); [15]
  Plant response rating, Corn: 75
Corn (Zea mays); [16]
  Plant response rating, Corn: 80
Corn (Zea mays); [17]
  Plant response rating, Corn: 0
Corn (Zea mays); [18]
  Plant response rating, Corn: 0
Corn (Zea mays); [19]
  Plant response rating, Corn: 0
Corn (Zea mays); [20]
  Corn plant response rating: 0
[1]; [13]
  Plant response rating, Foxtail, Giant: 40
[1]; [14]
  Plant response rating, Foxtail, Giant: 55
[1]; [15]
  Plant response rating, Foxtail, Giant: 65
[1]; [16]
  Plant response rating, Foxtail, Giant: 85
[1]; [17]
  Plant response rating, Foxtail, Giant: 0
[1]; [18]
  Plant response rating, Foxtail, Giant: 0
[1]; [19]
  Plant response rating, Foxtail, Giant: 20
[1]; [20]
  Foxtail, Giant plant response rating: 85
[2]; [13]
  Plant response rating, Goosegrass: 0
[2]; [14]
  Plant response rating, Goosegrass: 10
[2]; [15]
  Plant response rating, Goosegrass: 15
[2]; [16]
  Plant response rating, Goosegrass: 35
[2]; [17]
  Plant response rating, Goosegrass: 10
[2]; [18]
  Plant response rating, Goosegrass: 60
[2]; [19]
  Plant response rating, Goosegrass: 98
[2]; [20]
  Goosegrass plant response rating: 98
[3]; [13]
  Plant response rating, Foxtail, Green: 60
[3]; [14]
  Plant response rating, Foxtail, Green: 85
[3]; [15]
  Plant response rating, Foxtail, Green: 90
[3]; [16]
  Plant response rating, Foxtail, Green: 90
[3]; [17]
  Plant response rating, Foxtail, Green: 0
[3]; [18]
  Plant response rating, Foxtail, Green: 30
[3]; [19]
  Plant response rating, Foxtail, Green: 80
[3]; [20]
  Foxtail, Green plant response rating: 100
[4]; [15]
  Plant response rating, Johnsongrass: 55
[4]; [16]
  Plant response rating, Johnsongrass: 80
[4]; [17]
  Plant response rating, Johnsongrass: 0
[4]; [18]
  Plant response rating, Johnsongrass: 0
[4]; [19]
  Plant response rating, Johnsongrass: 20
[4]; [20]
  Johnsongrass plant response rating: 45
[5]; [13]
  Plant response rating, Lambsquarters: 98
[5]; [14]
  Plant response rating, Lambsquarters: 98
[5]; [15]
  Plant response rating, Lambsquarters: 100
[5]; [16]
  Plant response rating, Lambsquarters: 100
[5]; [17]
  Plant response rating, Lambsquarters: 100
[5]; [18]
  Plant response rating, Lambsquarters: 100
[5]; [19]
  Plant response rating, Lambsquarters: 100
[5]; [20]
  Lambsquarters plant response rating: 100
[6]; [13]
  Plant response rating, Pigweed: 100
[6]; [14]
  Plant response rating, Pigweed: 100
[6]; [16]
  Plant response rating, Pigweed: 100
[6]; [17]
  Plant response rating, Pigweed: 100
[6]; [18]
  Plant response rating, Pigweed: 100
[6]; [19]
  Plant response rating, Pigweed: 100
[6]; [20]
  Pigweed plant response rating: 100
Soybean (Glycine max); [13]
  Plant response rating, Soybean: 85
Soybean (Glycine max); [14]
  Plant response rating, Soybean: 100
Soybean (Glycine max); [16]
  Plant response rating, Soybean: 100
Soybean (Glycine max); [17]
  Plant response rating, Soybean: 0
Soybean (Glycine max); [18]
  Plant response rating, Soybean: 65
Soybean (Glycine max); [19]
  Plant response rating, Soybean: 80
Soybean (Glycine max); [20]
  Soybean plant response rating: 90
[7]; [13]
  Plant response rating, Velvetleaf: 85
[7]; [14]
  Plant response rating, Velvetleaf: 100
[7]; [16]
  Plant response rating, Velvetleaf: 100
[7]; [17]
  Plant response rating, Velvetleaf: 80
[7]; [18]
  Plant response rating, Velvetleaf: 85
[7]; [19]
  Plant response rating, Velvetleaf: 90
[7]; [20]
  Velvetleaf plant response rating: 100
[8]; [13]
  Plant response rating, Nutsedge, Yellow: 10
[8]; [14]
  Plant response rating, Nutsedge, Yellow: 15
[8]; [15]
  Plant response rating, Nutsedge, Yellow: 15
[8]; [16]
  Plant response rating, Nutsedge, Yellow: 60
[8]; [17]
  Plant response rating, Nutsedge, Yellow: 45
[8]; [18]
  Plant response rating, Nutsedge, Yellow: 75
[8]; [19]
  Plant response rating, Nutsedge, Yellow: 90
[8]; [20]
  Nutsedge, Yellow plant response rating: 90
[9]; [21]
  Plant response rating, Canarygrass: 0
[9]; [22]
  Plant response rating, Canarygrass: 0
[9]; [23]
  Plant response rating, Canarygrass: 0
[9]; [24]
  Plant response rating, Canarygrass: 5
[10]; [21]
  Plant response rating, Chickweed: 100
[10]; [22]
  Plant response rating, Chickweed: 100
[10]; [23]
  Plant response rating, Chickweed: 100
[10]; [24]
  Plant response rating, Chickweed: 100
[11]; [21]
  Plant response rating, Windgrass: 10
[11]; [22]
  Plant response rating, Windgrass: 20
[11]; [24]
  Plant response rating, Windgrass: 45
[12]; [21]
  Plant response rating, Barley: 30
[12]; [22]
  Plant response rating, Barley: 30
[12]; [23]
  Plant response rating, Barley: 35
[12]; [24]
  Plant response rating, Barley: 35

## Cc1ccc(F)cc1-n1c(-c2cccc(Cl)c2)ncc(C(=O)C2=C(O)CCCC2=O)c1=O [Compound 157]
Corn (Zea mays); [13]
  Plant response rating, Corn: 70
Corn (Zea mays); [15]
  Plant response rating, Corn: 95
Corn (Zea mays); [16]
  Plant response rating, Corn: 100
[1]; [13]
  Plant response rating, Foxtail, Giant: 98
[1]; [15]
  Plant response rating, Foxtail, Giant: 100
[1]; [16]
  Plant response rating, Foxtail, Giant: 100
[2]; [13]
  Plant response rating, Goosegrass: 85
[2]; [15]
  Plant response rating, Goosegrass: 98
[2]; [16]
  Plant response rating, Goosegrass: 100
[3]; [13]
  Plant response rating, Foxtail, Green: 70
[3]; [15]
  Plant response rating, Foxtail, Green: 85
[3]; [16]
  Plant response rating, Foxtail, Green: 95
[4]; [13]
  Plant response rating, Johnsongrass: 70
[4]; [15]
  Plant response rating, Johnsongrass: 100
[4]; [16]
  Plant response rating, Johnsongrass: 100
[5]; [13]
  Plant response rating, Lambsquarters: 98
[5]; [15]
  Plant response rating, Lambsquarters: 100
[5]; [16]
  Plant response rating, Lambsquarters: 100
[6]; [13]
  Plant response rating, Pigweed: 65
[6]; [15]
  Plant response rating, Pigweed: 90
[6]; [16]
  Plant response rating, Pigweed: 98
Soybean (Glycine max); [13]
  Plant response rating, Soybean: 95
Soybean (Glycine max); [15]
  Plant response rating, Soybean: 100
Soybean (Glycine max); [16]
  Plant response rating, Soybean: 100
[7]; [13]
  Plant response rating, Velvetleaf: 100
[7]; [15]
  Plant response rating, Velvetleaf: 100
[7]; [16]
  Plant response rating, Velvetleaf: 100
[8]; [13]
  Plant response rating, Nutsedge, Yellow: 30
[8]; [15]
  Plant response rating, Nutsedge, Yellow: 40
[8]; [16]
  Plant response rating, Nutsedge, Yellow: 45
[9]; [21]
  Plant response rating, Canarygrass: 40
[9]; [23]
  Plant response rating, Canarygrass: 80
[9]; [24]
  Plant response rating, Canarygrass: 90
[10]; [21]
  Plant response rating, Chickweed: 100
[10]; [23]
  Plant response rating, Chickweed: 100
[10]; [24]
  Plant response rating, Chickweed: 100
[11]; [21]
  Plant response rating, Windgrass: 60
[11]; [23]
  Plant response rating, Windgrass: 70
[11]; [24]
  Plant response rating, Windgrass: 80
[12]; 62 g ai/ha, postemergence, 0 is no effect, 100 is complete control, 13 to 15 days
  Barley plant response rating (0 to 100 scale): 15
[12]; [21]
  Plant response rating, Barley: 5
[12]; [23]
  Plant response rating, Barley: 30
[12]; [24]
  Plant response rating, Barley: 30

Reference: patent US8952024B2, “Herbicidal pyrimidone derivatives” (E I du Pont de Nemours and Company, priority 2009, dated 2015)
